Data as given in PubChem BioAssay AID330 (DTP/NCI, 2004).
Several values for one entry are separate records, joined by “and”; a condition that tells them apart may be missing. Equal entries are not always repeated. Inconclusive results and toxic doses are left out.

System: P388 leukemia ip, CD2F1 mice, survival T/C
Assay: NCI In Vivo Anticancer Drug Screen. Data for tumor model P388 Leukemia (intraperitoneal) in CD2F1 (CDF1) mice
Details: endpoint: median survival time, higher = longer survival
How it was run: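 Mice carrying the transplanted tumor received test compound or vehicle. Survival was recorded in each group, and the value is the treated-group measurement divided by that of the vehicle-treated control group.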

[1] = dose: 50.0 mg/kg/injection, schedule: Q01DX005 (ip), vehicle: Klucel (hydroxypropylcellulose) (HPC)
[2] = dose: 100.0 mg/kg/injection, schedule: Q01DX005 (ip), vehicle: Klucel (hydroxypropylcellulose) (HPC)
[3] = dose: 200.0 mg/kg/injection, schedule: Q01DX005 (ip), vehicle: Klucel (hydroxypropylcellulose) (HPC)
[4] = dose: 60.0 mg/kg/injection, schedule: Q01DX005 (ip), vehicle: saline with Tween-80
[5] = dose: 120.0 mg/kg/injection, schedule: Q01DX005 (ip), vehicle: saline with Tween-80
[6] = dose: 240.0 mg/kg/injection, schedule: Q01DX005 (ip), vehicle: saline with Tween-80
[7] = dose: 50.0 mg/kg/injection, schedule: Q01DX001 (ip), vehicle: Klucel (hydroxypropylcellulose) (HPC)
[8] = dose: 100.0 mg/kg/injection, schedule: Q01DX001 (ip), vehicle: Klucel (hydroxypropylcellulose) (HPC)
[9] = dose: 200.0 mg/kg/injection, schedule: Q01DX001 (ip), vehicle: Klucel (hydroxypropylcellulose) (HPC)
[10] = dose: 50.0 mg/kg/injection, schedule: Q01DX005 (ip), vehicle: saline with Tween-80
[11] = dose: 100.0 mg/kg/injection, schedule: Q01DX005 (ip), vehicle: saline with Tween-80
[12] = dose: 200.0 mg/kg/injection, schedule: Q01DX005 (ip), vehicle: saline with Tween-80

Cn1nc(-c2ccccc2)c([N+](=O)[O-])c1NCc1ccccc1
T/C [1]: 97 % of control | T/C [2]: 100 % of control | T/C [3]: 97 % of control

CCOC(=O)c1csc(=S)[nH]1
T/C [4]: 107 % of control | T/C [5]: 101 % of control | T/C [6]: 100 % of control

O=C1/C(=C/c2ccccc2)CCCC12C(c1ccccc1)N2Cc1ccccc1 (stereo not drawn)
T/C (dose: 60.0 mg/kg/injection, schedule: Q01DX005 (ip), vehicle: Klucel (hydroxypropylcellulose) (HPC)): 91 % of control | T/C (dose: 120.0 mg/kg/injection, schedule: Q01DX005 (ip), vehicle: Klucel (hydroxypropylcellulose) (HPC)): 90 % of control | T/C (dose: 240.0 mg/kg/injection, schedule: Q01DX005 (ip), vehicle: Klucel (hydroxypropylcellulose) (HPC)): 88 % of control

Cc1nc2n(c1/C=N/O)CCS2
T/C [7]: 90 % of control | T/C [8]: 99 % of control | T/C [9]: 93 % of control

C=Cc1cc(OCC)c(OC)c2ccc3ccc(OC)c(OC)c3c12
T/C [8]: 95 % of control | T/C [9]: 103 % of control | T/C (dose: 400.0 mg/kg/injection, schedule: Q01DX001 (ip), vehicle: Klucel (hydroxypropylcellulose) (HPC)): 92 % of control

CCOC(=O)CC(CSCP(=O)(OCC)OCC)C(=O)OCC (stereo not drawn)
T/C [4]: 105 % of control | T/C [5]: 94 % of control | T/C [6]: 100 % of control

Nc1nc(Nc2ccccc2)n[nH]1
T/C (dose: 50.0 mg/kg/injection, schedule: Q01DX009 (ip), vehicle: Klucel (hydroxypropylcellulose) (HPC)): 102 % of control | T/C (dose: 100.0 mg/kg/injection, schedule: Q01DX009 (ip), vehicle: Klucel (hydroxypropylcellulose) (HPC)): 102 % of control | T/C (dose: 200.0 mg/kg/injection, schedule: Q01DX009 (ip), vehicle: Klucel (hydroxypropylcellulose) (HPC)): 94 % of control

O=NN(CCCl)C(=O)Oc1ccc(F)cc1
T/C (dose: 3.12 mg/kg/injection, schedule: Q01DX001 (ip), vehicle: saline with Tween-80): 118 % of control | T/C (dose: 6.25 mg/kg/injection, schedule: Q01DX001 (ip), vehicle: saline with Tween-80): 116 % of control | T/C (dose: 50.0 mg/kg/injection, schedule: Q01DX001 (ip), vehicle: saline with Tween-80): 106 % of control

COc1cc2cc(c1Cl)N(C)C(=O)CC(OC(=O)C(C)N(C)C(=O)C(C)C)C1(C)OC1C(C)C1CC(O)(NC(=O)O1)C(OC)/C=C/C=C(C)C2OC (stereo not drawn)
T/C (dose: 4.0 micrograms/kg/injection, schedule: Q01DX009 (ip), vehicle: Klucel (hydroxypropylcellulose) (HPC)): 157 % of control and 163 % of control | T/C (dose: 4.0 micrograms/kg/injection, schedule: Q01DX009 (ip), vehicle: distilled water + alcohol): 108 % of control | T/C (dose: 8.0 micrograms/kg/injection, schedule: Q01DX009 (ip), vehicle: Klucel (hydroxypropylcellulose) (HPC)): 168 % of control | T/C (dose: 8.0 micrograms/kg/injection, schedule: Q01DX009 (ip), vehicle: distilled water + alcohol): 108 % of control and 115 % of control | T/C (dose: 15.5 micrograms/kg/injection, schedule: Q01DX009 (ip), vehicle: none): 157 % of control | T/C (dose: 16.0 micrograms/kg/injection, schedule: Q01DX009 (ip), vehicle: Klucel (hydroxypropylcellulose) (HPC)): 154 % of control | T/C (dose: 16.0 micrograms/kg/injection, schedule: Q01DX009 (ip), vehicle: distilled water + alcohol): 100 % of control and 123 % of control | T/C (dose: 31.0 micrograms/kg/injection, schedule: Q01DX009 (ip), vehicle: none): 150 % of control | T/C (dose: 32.0 micrograms/kg/injection, schedule: Q01DX009 (ip), vehicle: distilled water + alcohol): 100 % of control | T/C (dose: 64.0 micrograms/kg/injection, schedule: Q01DX009 (ip), vehicle: Klucel (hydroxypropylcellulose) (HPC)): 91 % of control | T/C (dose: 64.0 micrograms/kg/injection, schedule: Q01DX009 (ip), vehicle: distilled water + alcohol): 100 % of control | T/C (dose: 128.0 micrograms/kg/injection, schedule: Q01DX009 (ip), vehicle: distilled water + alcohol): 106 % of control

Nc1c2c(c(N)c3c1C(=O)c1ccccc1C3=O)OCO2
T/C [4]: 100 % of control | T/C [5]: 98 % of control | T/C [6]: 98 % of control

S=C(S)n1nc(-c2ccccc2)c(N=Nc2ccc(Br)cc2)c1-c1ccccc1
T/C (dose: 100.0 mg/kg/injection, schedule: Q04DX002 (ip), vehicle: Klucel (hydroxypropylcellulose) (HPC)): 107 % of control | T/C (dose: 200.0 mg/kg/injection, schedule: Q04DX002 (ip), vehicle: Klucel (hydroxypropylcellulose) (HPC)): 110 % of control | T/C (dose: 400.0 mg/kg/injection, schedule: Q04DX002 (ip), vehicle: Klucel (hydroxypropylcellulose) (HPC)): 113 % of control

CN(C)c1ccc2[nH]c3c(C(N)=O)cc(=O)c(=O)c=3oc2c1
T/C (dose: 25.0 mg/kg/injection, schedule: Q01DX005 (ip), vehicle: saline with Tween-80): 100 % of control and 107 % of control | T/C [10]: 98 % of control and 100 % of control (2×) | T/C [11]: 100 % of control and 120 % of control and 97 % of control | T/C [12]: 98 % of control and 107 % of control and 117 % of control

CSC(C(OC(C)=O)C(OC(C)=O)C(OC(C)=O)C(COC(C)=O)OC(C)=O)n1cnc2c(=S)nc[nH]c21 (stereo not drawn)
T/C [10]: 101 % of control | T/C [11]: 92 % of control | T/C [12]: 89 % of control

COc1cc(NCCCN=C(N)N)c2ncccc2c1
T/C (dose: 1.56 mg/kg/injection, schedule: Q01DX005 (ip), vehicle: saline with Tween-80): 99 % of control | T/C (dose: 3.13 mg/kg/injection, schedule: Q01DX005 (ip), vehicle: saline with Tween-80): 98 % of control | T/C (dose: 6.25 mg/kg/injection, schedule: Q01DX005 (ip), vehicle: saline with Tween-80): 102 % of control and 92 % of control

CC[CH2][Sn]([F])([F])[CH2]CC
T/C (dose: 0.78 mg/kg/injection, schedule: Q04DX003 (ip), vehicle: saline): 105 % of control | T/C (dose: 1.56 mg/kg/injection, schedule: Q04DX003 (ip), vehicle: saline): 100 % of control and 114 % of control | T/C (dose: 3.12 mg/kg/injection, schedule: Q04DX003 (ip), vehicle: saline): 102 % of control | T/C (dose: 6.25 mg/kg/injection, schedule: Q04DX003 (ip), vehicle: saline): 105 % of control | T/C (dose: 12.5 mg/kg/injection, schedule: Q04DX003 (ip), vehicle: saline): 114 % of control

COc1ccc2c(c1)C(=O)CC2
T/C [1]: 106 % of control | T/C [2]: 101 % of control | T/C [3]: 101 % of control

Cc1cn(C)c2c1-c1[nH]ncc1CC2
T/C (dose: 50.0 mg/kg/injection, schedule: Q04DX003 (ip), vehicle: Klucel (hydroxypropylcellulose) (HPC)): 100 % of control | T/C (dose: 100.0 mg/kg/injection, schedule: Q04DX003 (ip), vehicle: Klucel (hydroxypropylcellulose) (HPC)): 99 % of control | T/C (dose: 200.0 mg/kg/injection, schedule: Q04DX003 (ip), vehicle: Klucel (hydroxypropylcellulose) (HPC)): 103 % of control

O=c1ccc(N=Nc2cccc([N+](=O)[O-])c2)ccc1O
T/C (dose: 25.0 mg/kg/injection, schedule: Q01DX009 (ip), vehicle: saline with Tween-80): 107 % of control | T/C (dose: 50.0 mg/kg/injection, schedule: Q01DX009 (ip), vehicle: saline with Tween-80): 104 % of control | T/C (dose: 100.0 mg/kg/injection, schedule: Q01DX009 (ip), vehicle: saline with Tween-80): 104 % of control

C/C(NCCc1ccccc1)=C1\CCOC1=O
T/C [7]: 101 % of control | T/C [8]: 96 % of control | T/C [9]: 104 % of control

CS(=O)CSCC(N)C(=O)O (stereo not drawn)
T/C (dose: 25.0 mg/kg/injection, schedule: Q01DX009 (ip), vehicle: water): 91 % of control | T/C (dose: 50.0 mg/kg/injection, schedule: Q01DX009 (ip), vehicle: water): 100 % of control | T/C (dose: 100.0 mg/kg/injection, schedule: Q01DX009 (ip), vehicle: water): 93 % of control | T/C (dose: 200.0 mg/kg/injection, schedule: Q01DX009 (ip), vehicle: water): 99 % of control | T/C (dose: 400.0 mg/kg/injection, schedule: Q01DX009 (ip), vehicle: water): 96 % of control

C=CCC1(C(C)C(O)c2cc(OC)c(OC)c(OC)c2)CC(OC)C=CC1=O (stereo not drawn)
T/C (dose: 4.0 mg/kg/injection, schedule: Q01DX009 (ip), vehicle: olive oil, sesame oil, peanut oil): 116 % of control | T/C (dose: 8.0 mg/kg/injection, schedule: Q01DX009 (ip), vehicle: olive oil, sesame oil, peanut oil): 111 % of control | T/C (dose: 16.0 mg/kg/injection, schedule: Q01DX009 (ip), vehicle: olive oil, sesame oil, peanut oil): 111 % of control

COc1cc(Br)cc(C=O)c1OC
T/C (dose: 12.5 mg/kg/injection, schedule: Q01DX009 (ip), vehicle: other): 98 % of control | T/C (dose: 25.0 mg/kg/injection, schedule: Q01DX009 (ip), vehicle: other): 98 % of control | T/C (dose: 50.0 mg/kg/injection, schedule: Q01DX009 (ip), vehicle: other): 99 % of control | T/C (dose: 100.0 mg/kg/injection, schedule: Q01DX009 (ip), vehicle: other): 98 % of control | T/C (dose: 200.0 mg/kg/injection, schedule: Q01DX009 (ip), vehicle: other): 102 % of control | T/C (dose: 400.0 mg/kg/injection, schedule: Q01DX009 (ip), vehicle: other): 114 % of control
